Source: BindingDB's records for patent US20240190890 (Bristol-Myers Squibb, 2024)
pIC50: −log10 of the molar value.

These compounds were tested against MAP kinase-activated protein kinase 2 (Homo sapiens, UniProt P49137) (assay: Not found).
Chain of MAP kinase-activated protein kinase 2 (P49137 whole entry): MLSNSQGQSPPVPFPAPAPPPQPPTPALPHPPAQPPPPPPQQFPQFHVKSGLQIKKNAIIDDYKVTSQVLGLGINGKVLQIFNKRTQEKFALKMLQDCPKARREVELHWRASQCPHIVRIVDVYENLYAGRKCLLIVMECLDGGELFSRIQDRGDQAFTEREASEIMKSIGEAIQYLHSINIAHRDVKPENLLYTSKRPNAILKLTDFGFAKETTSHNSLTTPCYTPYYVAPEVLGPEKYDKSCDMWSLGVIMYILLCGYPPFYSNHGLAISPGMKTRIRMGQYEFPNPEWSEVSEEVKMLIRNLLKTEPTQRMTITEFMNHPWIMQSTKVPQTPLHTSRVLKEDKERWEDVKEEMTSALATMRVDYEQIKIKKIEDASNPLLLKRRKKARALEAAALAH
Procedure: Briefly, 10× stock solutions of MK2 (PV3317, from Life Technologies), 1.13X ATP (AS001A), and Sox conjugated peptide substrate, S/T3-Sox, (KZN1031) were prepared in 1× kinase reaction buffer consisting of 20 mM Tris, pH 7.5, 5 mM MgCl2, 1 mM EGTA, 5 mM β-glycerophosphate, 5% glycerol (10× stock, KB001A) and 0.2 mM DTT (DS001A). Enzyme solution (5 μL) was added to each of DMSO ([…]) or serially diluted test compounds prepared in DMSO in a Corning (#3574) 384-well, white, non-binding surface microtiter plate (Corning, NY). Kinase reactions were started with the addition of 45 μL of the ATP-peptide substrate S/T3-Sox mix and monitored every 71 seconds for 120 minutes at λex360/λem485 in a Synergy H4 plate reader from BioTek (Winooski, VT) at room temperature.
Work on `CCOCc1cnc(Cl)nc1-c1ccc2c(ccc3sc4c(c32)NC[C@@H](C)NC4=O)n1` [US20240190890, Compound I-3] yielded a pIC50 of 6.97.
For `C=Cc1nc(-c2ccc3c(ccc4sc5c(c43)NC[C@@H](C)NC5=O)n2)cc(N2CCN(C)CC2)n1` [US20240190890, Compound I-18], the pIC50 was 8.40.
`C=Cc1cc(-c2ccc3c(ccc4sc5c(c43)NC[C@@H](C)NC5=O)n2)cc(C=C)n1` [US20240190890, Compound I-80] showed a pIC50 of 6.24.
Compound `C=C(CN1CCOCC1)c1cc(-c2ccc3c(ccc4sc5c(c43)NC[C@@H](C)NC5=O)n2)ncn1` [US20240190890, Compound I-139] has a pIC50 of 8.70.
`C=Cc1cc(-c2ccc3c(ccc4sc5c(c43)NC[C@@H](C)NC5=O)n2)cc(N2CC(C)OC(C)C2)n1` (stereo not given in full) [US20240190890, Compound I-201] was tested, and the pIC50 was 7.14.
